# Experimental data published in patent US12209081B2 (Katholieke Universiteit Leuven, priority 2020, dated 2025).
# Target: mouse TRPM3α2 (mTRPM3) ion channel (Mus musculus (Mouse), UniProt J9SQF3)
# Assay: TRPM3 ion channel driven Ca2+ uptake, Fluo-4 AM assay, mTRPM3alpha2 overexpressing flip-in HEK293 cells stimulated with pregnenolone sulfate
# Assay type: cell-based
# Settings: PS 50 μM, cpds 200-299
# Method in brief: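 Flip-in HEK293 cells loaded with Fluo-4 AM were added to plates holding compound plus 50 μM pregnenolone sulfate in Ca2+-containing Krebs buffer. Fluorescence (ex 485/em 535 nm) read directly after cell addition; % inhibition relative to PS-stimulated vehicle and positive-control inhibitor.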
# Chain of mouse TRPM3α2 (mTRPM3) ion channel (J9SQF3 other isoform, or with tags, fused parts or gaps): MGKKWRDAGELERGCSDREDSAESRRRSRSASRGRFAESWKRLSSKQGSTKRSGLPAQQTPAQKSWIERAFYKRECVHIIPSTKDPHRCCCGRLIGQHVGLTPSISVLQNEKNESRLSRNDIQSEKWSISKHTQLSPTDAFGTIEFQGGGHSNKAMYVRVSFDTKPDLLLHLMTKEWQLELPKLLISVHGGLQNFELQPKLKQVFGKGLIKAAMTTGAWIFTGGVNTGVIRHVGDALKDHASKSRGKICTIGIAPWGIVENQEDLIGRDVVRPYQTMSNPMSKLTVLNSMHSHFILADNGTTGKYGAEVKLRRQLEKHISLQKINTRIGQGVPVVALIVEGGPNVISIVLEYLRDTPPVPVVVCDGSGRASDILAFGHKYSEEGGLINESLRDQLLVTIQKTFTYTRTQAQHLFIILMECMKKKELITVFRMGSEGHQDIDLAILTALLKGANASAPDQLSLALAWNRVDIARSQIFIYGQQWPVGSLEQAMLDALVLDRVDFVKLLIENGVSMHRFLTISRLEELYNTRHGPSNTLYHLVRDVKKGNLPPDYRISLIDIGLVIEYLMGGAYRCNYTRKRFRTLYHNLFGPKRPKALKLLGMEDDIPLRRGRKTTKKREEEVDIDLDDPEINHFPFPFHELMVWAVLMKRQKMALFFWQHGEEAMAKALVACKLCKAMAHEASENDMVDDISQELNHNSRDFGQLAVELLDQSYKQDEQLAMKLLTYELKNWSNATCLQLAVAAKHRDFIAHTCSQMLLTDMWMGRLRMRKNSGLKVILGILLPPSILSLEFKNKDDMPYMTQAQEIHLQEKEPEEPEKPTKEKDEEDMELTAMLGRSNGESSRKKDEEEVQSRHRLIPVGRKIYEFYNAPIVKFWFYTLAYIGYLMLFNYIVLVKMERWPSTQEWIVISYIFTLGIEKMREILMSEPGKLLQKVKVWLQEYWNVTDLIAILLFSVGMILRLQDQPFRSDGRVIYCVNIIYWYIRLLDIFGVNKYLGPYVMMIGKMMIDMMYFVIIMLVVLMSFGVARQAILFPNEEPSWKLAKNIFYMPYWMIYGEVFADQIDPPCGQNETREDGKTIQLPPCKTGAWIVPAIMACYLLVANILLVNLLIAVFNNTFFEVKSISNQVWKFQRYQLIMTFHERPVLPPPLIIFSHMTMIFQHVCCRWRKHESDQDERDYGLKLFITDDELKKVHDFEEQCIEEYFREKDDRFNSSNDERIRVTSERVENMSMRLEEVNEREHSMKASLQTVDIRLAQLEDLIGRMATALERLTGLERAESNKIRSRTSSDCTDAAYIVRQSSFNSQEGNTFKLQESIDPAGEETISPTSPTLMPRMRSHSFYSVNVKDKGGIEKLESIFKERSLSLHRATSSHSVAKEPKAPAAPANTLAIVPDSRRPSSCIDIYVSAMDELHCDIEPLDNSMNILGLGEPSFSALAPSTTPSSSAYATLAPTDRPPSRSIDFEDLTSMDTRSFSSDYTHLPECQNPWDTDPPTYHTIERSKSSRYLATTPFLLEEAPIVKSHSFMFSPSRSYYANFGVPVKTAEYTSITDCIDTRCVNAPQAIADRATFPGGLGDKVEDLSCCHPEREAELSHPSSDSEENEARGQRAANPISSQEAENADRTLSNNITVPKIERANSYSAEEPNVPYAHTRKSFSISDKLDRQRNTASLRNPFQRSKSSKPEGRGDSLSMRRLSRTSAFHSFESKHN
row,IC50 [µM],SMILES
1,< 1,"Cc1oc2ccc(OCc3ccncn3)cc2c1C(=O)N[C@@H](CO)C(N)=O [compound 294, (S)-N-(1-amino-3-hydroxy-1-oxopropan-2-yl)-2-methyl-5-(pyrimidin-4-ylmethoxy)benzofuran-3-carboxamide]"
2,< 1,"Cc1oc2ccc(OCc3ccnn3CC(F)F)cc2c1C(=O)N[C@@H](CO)C(N)=O [compound 295, (S)-N-(1-amino-3-hydroxy-1-oxopropan-2-yl)-5-((1-(2,2-difluoroethyl)-1H-pyrazol-5-yl)methoxy)-2-methylbenzofuran-3-carboxamide]"
3,< 1,"Cc1oc2ccc(OCc3cccnc3OC(F)F)cc2c1C(=O)N[C@@H](CO)C(N)=O [compound 296, (S)-N-(1-amino-3-hydroxy-1-oxopropan-2-yl)-5-((2-(difluoromethoxy)pyridin-3-yl)methoxy)-2-methylbenzofuran-3-carboxamide]"
4,< 1,"Cc1oc2ccc(OCc3cccnc3N(C)C)cc2c1C(=O)N[C@@H](CO)C(N)=O [compound 297, (S)-N-(1-amino-3-hydroxy-1-oxopropan-2-yl)-5-((2-(dimethylamino)pyridin-3-yl)methoxy)-2-methylbenzofuran-3-carboxamide]"
5,< 1,"Cc1nc(C)c(COc2ccc3oc(C)c(C(=O)N[C@@H](CO)C(N)=O)c3c2)s1 [compound 298, (S)-N-(1-amino-3-hydroxy-1-oxopropan-2-yl)-5-((2,4-dimethylthiazol-5-yl)methoxy)-2-methylbenzofuran-3-carboxamide]"
6,< 1,"Cc1nc(COc2ccc3oc(C)c(C(=O)N[C@@H](CO)C(N)=O)c3c2)c(C)s1 [compound 299, (S)-N-(1-amino-3-hydroxy-1-oxopropan-2-yl)-5-((2,5-dimethylthiazol-4-yl)methoxy)-2-methylbenzofuran-3-carboxamide]"

# Same assay, conditions: PS 50 μM, cpds 300-399
row,IC50 [µM],SMILES
1,< 1,"Cc1oc2ccc(OCc3cccnc3N)cc2c1C(=O)N[C@@H](CO)C(N)=O [compound 300, (S)-N-(1-amino-3-hydroxy-1-oxopropan-2-yl)-5-((2-aminopyridin-3-yl)methoxy)-2-methylbenzofuran-3-carboxamide]"
2,< 1,"Cc1oc2ccc(OCc3ncccc3C(F)F)cc2c1C(=O)N[C@@H](CO)C(N)=O [compound 301, (S)-N-(1-amino-3-hydroxy-1-oxopropan-2-yl)-5-((3-(difluoromethyl)pyridin-2-yl)methoxy)-2-methylbenzofuran-3-carboxamide]"
3,< 1,"Cc1oc2ccc(OCc3c(F)cnn3C)cc2c1C(=O)N[C@@H](CO)C(N)=O [compound 302, (S)-N-(1-amino-3-hydroxy-1-oxopropan-2-yl)-5-((4-fluoro-1-methyl-1H-pyrazol-5-yl)methoxy) -2-methylbenzofuran-3-carboxamide]"
4,< 1,"COC[C@H](NC(=O)c1c(C)oc2ccc(OCc3cnc(C)s3)cc12)C(N)=O [compound 303, (S)-N-(1-amino-3-methoxy-1-oxopropan-2-yl)-2-methyl-5-((2-methylthiazol-5-yl)methoxy)benzofuran-3-carboxamide]"
5,< 1,"Cc1ncsc1COc1ccc2oc(C)c(C(=O)N[C@H](C(N)=O)C(C)C)c2c1 [compound 304, (S)-N-(1-amino-3-methyl-1-oxobutan-2-yl)-2-methyl-5-((4-methylthiazol-5-yl)methoxy)benzofuran-3-carboxamide]"
6,< 1,"CNC(=O)[C@H](CO)NC(=O)c1c(C)oc2ccc(OCc3cnc(C)s3)cc12 [compound 305, (S)-N-(3-hydroxy-1-(methylamino)-1-oxopropan-2-yl)-2-methyl-5-((2-methylthiazol-5-yl)methoxy)benzofuran-3-carboxamide]"
7,< 1,"CNC(=O)[C@H](CO)NC(=O)c1c(C)oc2ccc(OCc3scnc3C)cc12 [compound 306, (S)-N-(3-hydroxy-1-(methylamino)-1-oxopropan-2-yl)-2-methyl-5-((4-methylthiazol-5-yl)methoxy)benzofuran-3-carboxamide]"
8,< 1,"O=C(NC1(CO)CCOCC1)c1c(C(F)F)oc2ccc(OCc3cccnc3O)cc12 [compound 311, 2-(difluoromethyl)-N-(4-(hydroxymethyl)tetrahydro-2H-pyran-4-yl)-5-((2-oxo-1,2-dihydropyridin-3-yl)methoxy)benzofuran-3-carboxamide]"
9,< 1,"Cc1ncsc1COc1ccc2oc(C3CC3)c(C(=O)NC3(CO)CCOCC3)c2c1 [compound 314, 2-cyclopropyl-N-(4-(hydroxymethyl)tetrahydro-2H-pyran-4-yl)-5-((4-methylthiazol-5-yl)methoxy)benzofuran-3-carboxamide]"
10,< 1,"CNC(=O)C1(NC(=O)c2c(C)oc3ccc(OCc4cnc(C)s4)cc23)CCC1 [compound 318, 2-methyl-N-(1-(methylcarbamoyl)cyclobutyl)-5-((2-methylthiazol-5-yl)methoxy)benzofuran-3-carboxamide]"
11,< 1,"CNC(=O)C1(NC(=O)c2c(C)oc3ccc(OCc4scnc4C)cc23)CCC1 [compound 319, 2-methyl-N-(1-(methylcarbamoyl)cyclobutyl)-5-((4-methylthiazol-5-yl)methoxy)benzofuran-3-carboxamide]"
12,< 1,"CNC(=O)C1(NC(=O)c2c(C)oc3ccc(OCc4ccccn4)cc23)CCC1 [compound 320, 2-methyl-N-(1-(methylcarbamoyl)cyclobutyl)-5-(pyridin-2-ylmethoxy)benzofuran-3-carboxamide]"
13,< 1,"CNC(=O)CNC(=O)c1c(C)oc2ccc(OCc3scnc3C)cc12 [compound 321, 2-methyl-N-(2-(methylamino)-2-oxoethyl)-5-((4-methylthiazol-5-yl)methoxy)benzofuran-3-carboxamide]"
14,< 1,"Cc1ncsc1COc1ccc2oc(C)c(C(=O)NCCNS(C)(=O)=O)c2c1 [compound 322, 2-methyl-N-(2-(methylsulfonamido)ethyl)-5-((4-methylthiazol-5-yl)methoxy)benzofuran-3-carboxamide]"
15,< 1,"Cc1ncsc1COc1ccc2oc(C)c(C(=O)NCCS(C)(=O)=O)c2c1 [compound 323, 2-methyl-N-(2-(methylsulfonyl)ethyl)-5-((4-methylthiazol-5-yl)methoxy)benzofuran-3-carboxamide]"
16,< 1,"CNC(=O)C1(NC(=O)c2c(C)oc3ccc(OCc4scnc4C)cc23)COC1 [compound 324, 2-methyl-N-(3-(methylcarbamoyl)oxetan-3-yl)-5-((4-methylthiazol-5-yl)methoxy)benzofuran-3-carboxamide]"
17,1 to 20,Cc1oc2ccc(OCc3cccnc3C(N)=O)cc2c1C(=O)NC1(CO)CCOCC1 [compound 325]
18,< 1,"Cc1ncsc1COc1ccc2oc(C)c(C(=O)NC3(CO)COC3)c2c1F [compound 328, 4-fluoro-N-(3-(hydroxymethyl)oxetan-3-yl)-2-methyl-5-((4-methylthiazol-5-yl)methoxy)benzofuran-3-carboxamide]"
19,< 1,"COc1ncccc1COc1ccc2oc(C)c(C(=O)NC3(CO)CCOCC3)c2c1F [compound 330, 4-fluoro-N-(4-(hydroxymethyl)tetrahydro-2H-pyran-4-yl)-5-((2-methoxypyridin-3-yl)methoxy)-2-methylbenzofuran-3-carboxamide]"
20,< 1,"Cc1oc2ccc(OCc3ccnn3CC(F)F)cc2c1C(=O)NC1(CO)CCOCC1 [compound 334, 5-((1-(2,2-difluoroethyl)-1H-pyrazol-5-yl)methoxy)-N-(4-(hydroxymethyl)tetrahydro-2H-pyran-4-yl)-2-methylbenzofuran-3-carboxamide]"
21,< 1,"Cc1oc2ccc(OCc3cccnc3N3CCC3)cc2c1C(=O)NC1(CO)CCOCC1 [compound 337, 5-((2-(azetidin-1-yl)pyridin-3-yl)methoxy)-N-(4-(hydroxymethyl)tetrahydro-2H-pyran-4-yl)-2-methylbenzofuran-3-carboxamide]"
22,< 1,"Cc1oc2ccc(OCc3cccnc3OC(F)F)cc2c1C(=O)NC1(CO)CCOCC1 [compound 339, 5-((2-(difluoromethoxy)pyridin-3-yl)methoxy)-N-(4-(hydroxymethyl)tetrahydro-2H-pyran-4-yl) -2-methylbenzofuran-3-carboxamide]"
23,< 1,"Cc1oc2ccc(OCc3cccnc3C(F)F)cc2c1C(=O)NC1(CO)COC1 [compound 341, 5-((2-(difluoromethyl)pyridin-3-yl)methoxy)-N-(3-(hydroxymethyl)oxetan-3-yl)-2-methylbenzofuran-3-carboxamide]"
24,< 1,"Cc1oc2ccc(OCc3cccnc3C(F)F)cc2c1C(=O)NC1(CO)CCOCC1 [compound 343, 5-((2-(difluoromethyl)pyridin-3-yl)methoxy)-N-(4-(hydroxymethyl)tetrahydro-2H-pyran-4-yl)-2-methylbenzofuran-3-carboxamide]"
25,< 1,"Cc1oc2ccc(OCc3cccnc3N(C)C)cc2c1C(=O)NC1(CO)CCOCC1 [compound 344, 5-((2-(dimethylamino)pyridin-3-yl)methoxy)-N-(4-(hydroxymethyl)tetrahydro-2H-pyran-4-yl)-2-methylbenzofuran-3-carboxamide]"
26,< 1,"Cc1nc(C)c(COc2ccc3oc(C)c(C(=O)NC4(CO)CCOCC4)c3c2)s1 [compound 345, 5-((2,4-dimethylthiazol-5-yl)methoxy)-N-(4-(hydroxymethyl)tetrahydro-2H-pyran-4-yl)-2-methylbenzofuran-3-carboxamide]"
27,< 1,"Cc1oc2ccc(OCc3cccnc3N)cc2c1C(=O)NC1(CO)CCOCC1 [compound 346, 5-((2-aminopyridin-3-yl)methoxy)-N-(4-(hydroxymethyl)tetrahydro-2H-pyran-4-yl)-2-methylbenzofuran-3-carboxamide]"
28,< 1,"Cc1oc2ccc(OCc3ncccc3F)cc2c1C(=O)NC1(CO)CCOCC1 [compound 352, 5-((3-fluoropyridin-2-yl)methoxy)-N-(4-(hydroxymethyl)tetrahydro-2H-pyran-4-yl)-2-methylbenzofuran-3-carboxamide]"
